Experimental data from PubChem BioAssay AID256 (DTP/NCI, 2004).
“And” between values parts separate entries of the source, which are not always exact repeats. Identical values can stand only once. Toxic doses and inconclusive results are not listed. How the source made its calls: active means survival T/C of 150% or more; inactive means T/C below 125% in these data.

System: CD2F1 mice, L1210 leukemia ip, survival T/C
Assay: NCI In Vivo Anticancer Drug Screen. Data for tumor model L1210 Leukemia (intraperitoneal) in CD2F1 (CDF1) mice
Conditions: endpoint: mean survival time, higher = longer survival
How it was run: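 In this screen, transplantable tumors were grown in mice given either the compound or its vehicle. Results were expressed as the treated measurement relative to the control measurement.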

[1] = dose: 100.0 mg/kg/injection, schedule: Q01DX001 (ip), vehicle: saline with Tween-80
[2] = dose: 100.0 mg/kg/injection, schedule: Q01DX009 (ip), vehicle: saline with Tween-80
[3] = dose: 100.0 mg/kg/injection, schedule: Q04DX003 (ip), vehicle: saline with Tween-80
[4] = dose: 200.0 mg/kg/injection, schedule: Q01DX001 (ip), vehicle: saline with Tween-80
[5] = dose: 200.0 mg/kg/injection, schedule: Q01DX009 (ip), vehicle: saline with Tween-80
[6] = dose: 200.0 mg/kg/injection, schedule: Q04DX003 (ip), vehicle: saline with Tween-80
[7] = dose: 400.0 mg/kg/injection, schedule: Q01DX001 (ip), vehicle: saline with Tween-80
[8] = dose: 400.0 mg/kg/injection, schedule: Q04DX003 (ip), vehicle: saline with Tween-80
[9] = dose: 50.0 mg/kg/injection, schedule: Q01DX009 (ip), vehicle: saline with Tween-80
[10] = dose: 25.0 mg/kg/injection, schedule: Q01DX009 (ip), vehicle: saline with Tween-80

Measured: T/C

C=C1C(=O)OCC2C(C(=O)O)=CC3C(C)C(C)=CC123 (centres undefined)
inactive: dose: 20.0 mg/kg/injection, schedule: Q04DX003 (ip), vehicle: saline with Tween-80 109 % of control | dose: 40.0 mg/kg/injection, schedule: Q04DX003 (ip), vehicle: saline with Tween-80 121 % of control | dose: 80.0 mg/kg/injection, schedule: Q04DX003 (ip), vehicle: saline with Tween-80 120 % of control

CS(=O)(=O)C(Br)(Br)S(C)(=O)=O
inactive: dose: 4.7 mg/kg/injection, schedule: Q01DX001 (ip), vehicle: saline with Tween-80 103 % of control | dose: 9.4 mg/kg/injection, schedule: Q01DX001 (ip), vehicle: saline with Tween-80 100 % of control

Oc1c(Cl)c(Cl)c(O)c(Cl)c1Cl
inactive: dose: 6.25 mg/kg/injection, schedule: Q01DX001 (ip), vehicle: saline with Tween-80 98 % of control | dose: 12.5 mg/kg/injection, schedule: Q01DX001 (ip), vehicle: saline with Tween-80 95 % of control | dose: 25.0 mg/kg/injection, schedule: Q01DX001 (ip), vehicle: saline with Tween-80 95 % of control

COc1ccc(NC(=O)Nc2ccc([N+](=O)[O-])cc2OC)c(Cl)c1
inactive: dose: 25.0 mg/kg/injection, schedule: Q04DX002 (ip), vehicle: saline with Tween-80 88 % of control and 101 % of control | dose: 50.0 mg/kg/injection, schedule: Q04DX002 (ip), vehicle: saline with Tween-80 95 % of control and 103 % of control | [1] 94 % of control | [2] 88 % of control and 95 % of control | dose: 100.0 mg/kg/injection, schedule: Q04DX002 (ip), vehicle: saline with Tween-80 95 % of control | [3] 97 % of control | [4] 101 % of control | [5] 88 % of control and 97 % of control | dose: 200.0 mg/kg/injection, schedule: Q04DX002 (ip), vehicle: saline with Tween-80 93 % of control | [6] 95 % of control | [7] 86 % of control and 91 % of control | dose: 400.0 mg/kg/injection, schedule: Q01DX009 (ip), vehicle: saline with Tween-80 90 % of control and 100 % of control | dose: 400.0 mg/kg/injection, schedule: Q04DX002 (ip), vehicle: saline with Tween-80 98 % of control | [8] 101 % of control

C[Si](C)c1cccc(Cl)c1
inactive: [2] 104 % of control | [5] 100 % of control

O=C(O)C(=O)Cc1cccc(Cl)c1[N+](=O)[O-]
inactive: dose: 37.5 mg/kg/injection, schedule: Q01DX009 (ip), vehicle: saline 97 % of control | dose: 75.0 mg/kg/injection, schedule: Q01DX009 (ip), vehicle: saline 103 % of control | dose: 150.0 mg/kg/injection, schedule: Q01DX009 (ip), vehicle: saline 97 % of control

O=C1C=CC(=Nc2ccc(Cl)cc2)O1
inactive: [3] 101 % of control | [8] 97 % of control

CCOC(=O)C[n+]1ccc(C(=O)c2cc3ccccc3[nH]2)cc1
inactive: [1] 97 % of control | [4] 101 % of control | [7] 93 % of control

CC(C)(C)c1cccc(C(C)(C)C)c1OC(=O)NS(=O)(=O)c1ccccc1
inactive: dose: 12.5 mg/kg/injection, schedule: Q04DX003 (ip), vehicle: acetone 101 % of control | dose: 25.0 mg/kg/injection, schedule: Q04DX003 (ip), vehicle: acetone 101 % of control | dose: 50.0 mg/kg/injection, schedule: Q04DX003 (ip), vehicle: acetone 113 % of control

O=C(NC(CSCc1ccccc1)C(=O)O)OCc1ccccc1 (centres undefined)
inactive: [9] 98 % of control | [2] 94 % of control | [3] 93 % of control | [5] 103 % of control | [6] 101 % of control

[O-][n+]1c(CN2CCCCC2)nc2cccc3c2c1-c1ccccc1-3
inactive: dose: 12.5 mg/kg/injection, schedule: Q01DX009 (ip), vehicle: saline with Tween-80 104 % of control | [10] 103 % of control | [9] 103 % of control | [2] 113 % of control | [5] 109 % of control

Clc1nc[nH]c1Cl
inactive: [10] 97 % of control | [9] 95 % of control | [2] 97 % of control | [3] 95 % of control

NNC(=O)Sc1ccccc1
inactive: dose: 100.0 mg/kg/injection, schedule: Q01DX001 (ip), vehicle: saline 107 % of control | dose: 200.0 mg/kg/injection, schedule: Q01DX001 (ip), vehicle: saline 111 % of control | dose: 400.0 mg/kg/injection, schedule: Q01DX001 (ip), vehicle: saline 102 % of control

OCc1ccc(Cl)cc1Cl
inactive: [2] 93 % of control | [5] 92 % of control
